This passage reports GI50, IC50 and Activity results from ChEMBL document CHEMBL1155596, “8-O-Methylsclerotiorinamine, antagonist of the Grb2-SH2 domain, isolated from Penicillium multicolor” (J Nat Prod, 2000).

Structures are written as SMILES.

Broadly, the GI50 is the concentration at which growth is held to half of that of the control. What is called IC50 is the midpoint of a concentration-inhibition curve.

Series [1] is described as follows: Growth inhibition of mouse B104-1-1 cells after 48 hrs by WST1 assay. Format: cell-based. For orientation: Tetrazolium assays rely on reduction of a dye to a coloured formazan, in cell work by metabolically active cells.
Series [2] concerns the target Growth factor receptor-bound protein 2 (Homo sapiens, UniProt P62993). As to the kind of experiment: Inhibition of GST tagged Grb2 SH2 domain binding to Shc-derived [3H]phosphopeptide.
The target in series [3] is Growth factor receptor-bound protein 2 (Mus musculus) (UniProt Q60631). As to the kind of experiment: Inhibition of Shc-Grb2 interaction in mouse B104-1-1 cells by immunoblotting. Format: cell-based. More on the design: scale not given: the % may be the effect or the level left. For orientation: A western blot detects proteins with antibodies after separation by electrophoresis.
Growth factor receptor-bound protein 2 (Mus musculus), sequence (Q60631 whole entry): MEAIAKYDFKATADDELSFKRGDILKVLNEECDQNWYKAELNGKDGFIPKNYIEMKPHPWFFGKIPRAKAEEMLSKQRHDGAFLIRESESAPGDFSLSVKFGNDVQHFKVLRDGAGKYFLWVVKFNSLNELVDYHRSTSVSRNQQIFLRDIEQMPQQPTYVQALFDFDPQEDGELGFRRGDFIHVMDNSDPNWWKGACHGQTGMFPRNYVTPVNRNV

Growth factor receptor-bound protein 2, sequence (P62993 whole entry, the tested form may be a part): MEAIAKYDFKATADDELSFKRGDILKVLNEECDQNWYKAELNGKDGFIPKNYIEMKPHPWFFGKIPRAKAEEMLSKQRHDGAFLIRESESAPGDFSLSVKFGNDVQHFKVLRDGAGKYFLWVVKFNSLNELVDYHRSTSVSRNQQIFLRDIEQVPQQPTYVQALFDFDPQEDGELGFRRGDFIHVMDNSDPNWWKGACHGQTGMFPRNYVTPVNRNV

On to `CCC(C)/C=C(C)/C=C/c1cc2c(cn1)=C(OC)[C@@](C)(OC(C)=O)C(=O)C=2Cl` (stereo partly drawn), for which, in series [1], it took 50 µM to inhibit growth by half (GI50 at 48 h). In series [2], this compound registered an IC50 of 5.3 µM. Besides, the Activity in series [3] worked out at 50%.
